Where two headings read alike, the source gives them in different places.

One assay has as its system RSV-A2-GFP virus. In words: microbe, parasite or virus in culture. The settings on record: Calu-1 cells, RSV-A2-GFP MOI=1.2, 96 hrs, GFP-expressing cells counted. Type of assay: cell-based, Human Respiratory Syncytial Virus. On the procedure: To set up the assay, ARF vials were thawed in a 37° C. water bath and a control compound was resuspended in assay media DMEM (Dulbecco's Modified Eagle Medium) containing 2% FBS, 100 U/ml Penicillin-Streptomycin.
GFP sequence was derived from pJTI™ R4 Dest CMV N-EmGFP pA Vector (Invitrogen) and was cloned into the intergenic sequence between wild-type RSV-A2 P and M genes using standard recombineering techniques. Recombinant RSV-A2-GFP was propagated in Hep2 cells (human cells contain HeLa marker chromosomes and were derived via HeLa contamination, ATCC CCL-23) with a Multiplicity of Infection (MOI) of 0.1. Virus was harvested 3 days after infection by collecting all culture material and then freeze-thawing the mixture for 5 minutes. Working virus stocks were generated by thawing frozen viral cultures in 37° C. water bath, which were centrifuged at 218 g for 15 min at 4° C. 1/10 of 10×SPG (Biological Industries 06-3061-01-5A) were added and then mixed. The supernatant was aliquoted, frozen in liquid nitrogen, and then transferred to a −80° C. freezer for storage. Virus titer was determined by automated plaque assay in HEp-2 cells following methods described previously (Wen Z. et al.; 2019).
Calu-1 cells were purchased from ATCC (Cat #HTB-54) and were expanded in growth media (DMEM containing 10% FBS, 100 U/ml Penicillin-Streptomycin). To make ARF, cell culture media was removed and discarded and the cell layer was briefly rinsed with PBS to remove serum. 2.5 mL of TrypLE Express solution were added and cells incubated until dislodged, to which growth media was added and the cells were resuspended by gentle pipetting. Cells were counted for concentration and viability as determined by ViCell. Cells were centrifuged at RT, 300 g for 5 minutes to pellet cells. The supernatant was gently aspirated and the pellet was flicked to loosen cells. Cells were resuspended in an appropriate volume of freezing medium (DMEM containing 10% DMSO, 10% FBS, 100 U/ml Penicillin-Streptomycin) to achieve a concentration of 5×10^6 cells/mL. 1 mL aliquots of the cell suspension were transferred to freezing vials. The vials were put into an upright container in a −80° C. freezer overnight before transferring vials to liquid nitrogen for storage
Assay ready freeze-down (ARF, generation described separately) Calu-1 cells (ATCC HTB-54) were used. Compound plates were prepared by dispensing compounds dissolved in DMSO into the wells of a 384 well Corning® 3985 plate with an ECHO acoustic dispenser and compounds were tested in 10-point serial 3-fold dilution. […] To set up the assay, ARF vial(s) were thawed in a 37° C. water bath and were then resuspended into assay media (DMEM containing 2% FBS, 100 U/ml Penicillin-Streptomycin). Cells were counted using default parameters on ViCell and diluted to 20,000 cells/mL in assay media. RSV-A2-GFP virus was added to cells at 24,000 pfu/ml (MOI=1.2) and mixed by gentle inversion. 10 μL/well of 100% DMSO was dispensed as CellTiter-Glo (CTG) assay Max_E controls wells. The cells were dispensed at 50 μL/well using Bravo with 50 μL filtered tips into compound plates. Plates were covered with MicroClime lids, loaded with 7.5 mL of assay media to minimize evaporation, and were incubated at 37° C. and 5% CO2 for 96 hrs. Following incubation, distinct, GFP-expressing cells were counted using an Acumen imaging system with appropriate settings. A same-well CTG assay was performed by adding 10 μL/well reconstituted CellTiter-Glo reagent (Promega G7573) and plates were read on PerkinElmer Envision according to manufacturer's instructions. Raw data were loaded and analyzed in ActivityBase. Antiviral IC50 and cytotoxicity CC50 values were determined using a 4 parameter logistic fit based on the Levenberg-Marquardt algorithm. Model: 205-4 Parameter Logistic.

The subject of the next assay is hMPV-GFP virus. In words: microbe, parasite or virus in culture. Type of assay: cell-based, Human Metapneumovirus. As to conditions: VERO cells, hMPV-GFP MOI=1.25, 48 hrs, GFP-expressing cells counted. As to the method: GFP expressing rgHMPV #3 p3 was generated in Dr. Buchholz's lab (Biacchesi S. et al., J Virol. 2007 June; 81(11): 6057-6067) and propagated in VERO cells (ATCC Cat #CCL-81) with a Multiplicity of Infection (MOI) of 0.1. Virus was harvested 4 days after infection by collecting cultured material and was freeze-thaw cycled in liquid nitrogen twice. Working virus stocks were generated from thawing frozen samples in 37° C. water bath, which were centrifuged at 218 g for 15 min at 4° C. 1/10 of 10×SPG (Biological Industries 06-3061-01-5A) were added and then mixed. The supernatant was aliquoted, frozen in liquid nitrogen, and then transferred to a −80° C. freezer for storage. Virus titer was determined by performing titration test in 96-well plates and calculate approximate virus titer using GFP event/well data.
Compound plates were prepared by dispensing compounds dissolved in DMSO into wells of a 384 well Corning 3985 polystyrene flat clear bottom optical imaging microplate (202.5 nL/well) using an ECHO acoustic dispenser. Each compound was tested in 10-point serial 3-fold dilution (typical final concentrations: 40,300 nM-2 nM). […] Continuous culture of VERO cells was maintained in complete culture media (OptiMEM supplemented with 2 mM GlutaMAX™ and 100 U/ml Penicillin-Streptomycin). To set up the assay, VERO cells were trypsinized with 0.25% Trypsin-EDTA until cells were dislodged, then cells were re-suspended with 1 mL FBS. Cells were spundown at 300 g for 5 minutes and cells were washed twice with culture media and counted using default parameters on ViCell. Cells were then diluted to 100,000 cells/mL (5,000 cells/50 μL) in complete culture media+TrypLE Select (80 μL/mL). hMPV-GFP virus was added to cells at 125,000 pfu/mL (MOI=1.25) and were mixed by gentle inversion. 10 μL/well of 100% DMSO was dispensed to CellTiter-Glo (CTG) assay Max_E controls wells. Cells were dispensed at 50 μL/well using Bravo and 50 μL filtered tips into compound plates. Plates were covered with MicroClime lids and loaded with 7.5 mL of assay media to minimize evaporation. Plates were lightly shaken for 10 minutes at room temperature and then incubated at 37° C. and 5% CO2 for 48 hrs. Following incubation, distinct GFP-expressing cells were counted using an Acumen imaging system with appropriate settings. A same-well CTG assay was performed by adding 10 μL/well reconstituted CellTiter-Glo reagent (Promega G7573) and plates were read on PerkinElmer Envision according to manufacturer's instructions. Raw data were loaded and analyzed in ActivityBase. Antiviral IC50 and cytotoxicity CC50 values were determined using a 4 parameter logistic fit based on the Levenberg-Marquardt algorithm. Model: 205-4 Parameter Logistic.

Setting [1] is: Table I Summary of Activities for RSV, read-out: RSV EC50.
The mark [2] stands for this setting: Table II Summary of Activities for hMPV, read-out: RSV EC50.
[3] abbreviates: human respiratory syncytial virus, Calu-1, 96 h, read-out: RSV EC50, Table I Summary of Activities for RSV.
Setting [4] is: Vero, 48 h, read-out: RSV EC50, Table II Summary of Activities for hMPV.
The mark [5] stands for this setting: read-out: RSV EC50, Table I Summary of Activities for RSV.
[6] abbreviates: read-out: RSV EC50, Table II Summary of Activities for hMPV.

For the molecule `Cn1nc(-c2cscn2)cc1C(=O)N1C[C@@H]2[C@H](C1)[C@H]2Oc1cc(C(C)(C)N)cc(N2CCC(C(F)(F)F)CC2)n1` [Example 41, ((1R,5S,6s)-6-((4-(2-aminopropan-2-yl)-6-(4-(trifluoromethyl)piperidin-1-yl)pyridin-2-yl)oxy)-3-azabicyclo[3.1.0]hexan-3-yl)(1-methyl-3-(thiazol-4-yl)-1H-pyrazol-5-yl)methanone], the EC50 in the assay with RSV-A2-GFP virus (setting [1]) was less than 0.01 µM; with hMPV-GFP virus (setting [2]), greater than 0.1 µM.

Regarding `Cn1nc(-c2cscn2)cc1C(=O)N1C[C@@H]2[C@H](C1)[C@H]2Oc1cc(C(C)(C)N)cc(C2(C)CCCC2)n1` [Example 63, ((1R,5S,6s)-6-((4-(2-aminopropan-2-yl)-6-(1-methylcyclopentyl)pyridin-2-yl)oxy)-3-azabicyclo[3.1.0]hexan-3-yl)(1-methyl-3-(thiazol-4-yl)-1H-pyrazol-5-yl)methanone], the EC50 was less than 0.01 µM with RSV-A2-GFP virus (setting [3]) and greater than 0.1 µM in the assay with hMPV-GFP virus (setting [4]).

As for `Cn1nc(-c2cscn2)cc1C(=O)N1C[C@@H]2[C@H](C1)[C@H]2Oc1cc(C2(C)CCNC2=O)cc(-c2ccc(F)cc2)n1` (single isomer, unassigned; ent-3) [Example 51B], the EC50 with RSV-A2-GFP virus (setting [5]) is less than 0.01 µM; with hMPV-GFP virus (setting [6]), greater than 0.1 µM.

Turning to `Cn1nc(-c2cscn2)cc1C(=O)N1C[C@@H]2[C@H](C1)[C@H]2Oc1cc(C(C)(C)N)cc(-n2cc(C3CC3)cn2)n1` [Example 38, ((1R,5S,6s)-6-((4-(2-aminopropan-2-yl)-6-(4-cyclopropyl-1H-pyrazol-1-yl)pyridin-2-yl)oxy)-3-azabicyclo[3.1.0]hexan-3-yl)(1-methyl-3-(thiazol-4-yl)-1H-pyrazol-5-yl)methanone], the figures for the concentration for a half-maximal effect (EC50) in the assay with RSV-A2-GFP virus (setting [1]) and in the assay with hMPV-GFP virus (setting [2]) were less than 0.01 µM and greater than 0.1 µM, respectively.

With `Cc1nc(-c2ccon2)sc1C(=O)N1C[C@@H]2[C@H](C1)[C@H]2Oc1cc(C(C)(C)N)cc(-c2ccc(F)cc2)n1` [Example 5, ((1R,5S,6s)-6-((4-(2-aminopropan-2-yl)-6-(4-fluorophenyl)pyridin-2-yl)oxy)-3-azabicyclo[3.1.0]hexan-3-yl)(2-(isoxazol-3-yl)-4-methylthiazol-5-yl)methanone], the results for the EC50 in the assay with RSV-A2-GFP virus (setting [1]) and in the assay with hMPV-GFP virus (setting [2]) were less than 0.01 µM and 0.01 to 0.1 µM, respectively.

As for `CC(O)c1nc(-c2cscn2)sc1C(=O)N1C[C@@H]2[C@H](C1)[C@H]2Oc1cc(C(C)(C)N)cc(-c2ccc(F)cc2)n1` (single isomer, unassigned; enantiomer 1) [Example 16A], the EC50 in the assay with RSV-A2-GFP virus (setting [3]) is less than 0.01 µM; with hMPV-GFP virus (setting [6]) it was 0.01 to 0.1 µM.

Regarding `Cn1nc(-c2ccon2)cc1C(=O)N1C[C@@H]2[C@H](C1)[C@H]2Oc1cc(C(C)(C)N)cc(N2CCC(C(F)(F)F)CC2)n1` [Example 64, ((1R,5S,6s)-6-((4-(2-aminopropan-2-yl)-6-(4-(trifluoromethyl)piperidin-1-yl)pyridin-2-yl)oxy)-3-azabicyclo[3.1.0]hexan-3-yl)(3-(isoxazol-3-yl)-1-methyl-1H-pyrazol-5-yl)methanone], the EC50 in the assay with RSV-A2-GFP virus (setting [3]) is less than 0.01 µM; in the assay with hMPV-GFP virus (setting [4]) it was greater than 0.1 µM.

Consider `CC(C)(N)c1cc(O[C@H]2[C@@H]3CN(C(=O)c4sc(-c5ncco5)nc4C(F)F)C[C@@H]32)nc(-c2ccc(F)cc2)c1` [Example 15, ((1R,5S,6s)-6-((4-(2-aminopropan-2-yl)-6-(4-fluorophenyl)pyridin-2-yl)oxy)-3-azabicyclo[3.1.0]hexan-3-yl)(4-(difluoromethyl)-2-(oxazol-2-yl)thiazol-5-yl)methanone], for which the EC50 is less than 0.01 µM in the assay on RSV-A2-GFP virus (setting [1]) and greater than 0.1 µM in the assay on hMPV-GFP virus (setting [2]).

As to `Cn1nc(-c2cscn2)cc1C(=O)N1C[C@@H]2[C@H](C1)[C@H]2Oc1cc(C2(C)CCNC2=O)cc(-c2ccc(F)cc2)n1` (single isomer, unassigned; ent-3) [Example 51A], the results for the EC50 in the assay with RSV-A2-GFP virus (setting [3]) and with hMPV-GFP virus (setting [4]) were less than 0.01 µM and greater than 0.1 µM, respectively.

Regarding `Cn1nc(-c2cscn2)cc1C(=O)N1C[C@@H]2[C@H](C1)[C@H]2Oc1cc(C(C)(C)N)cc(C2CCC(C)(C)CC2O)n1` (single isomer, unassigned; enantiomer 4) [Example 66D], the EC50 with RSV-A2-GFP virus (setting [5]) was 0.01 to 0.1 µM; in the assay on hMPV-GFP virus (setting [6]), greater than 0.1 µM.

`CC(O)c1nc(-c2cscn2)sc1C(=O)N1C[C@@H]2[C@H](C1)[C@H]2Oc1cc(C(C)(C)N)cc(-c2ccc(F)cc2)n1` (single isomer, unassigned; enantiomer 2) [Example 16B]: the concentration giving a half-maximal response (EC50) is less than 0.01 µM with RSV-A2-GFP virus (setting [5]) and greater than 0.1 µM with hMPV-GFP virus (setting [6]).

On to `Cn1nc(-c2cscn2)cc1C(=O)N1C[C@@H]2[C@H](C1)[C@H]2Oc1cc(-c2ccc(F)cc2)cc(C(C)(C)N)n1` [Example 59, ((1R,5S,6s)-6-((6-(2-aminopropan-2-yl)-4-(4-fluorophenyl)pyridin-2-yl)oxy)-3-azabicyclo[3.1.0]hexan-3-yl)(1-methyl-3-(thiazol-4-yl)-1H-pyrazol-5-yl)methanone], for which the EC50 was less than 0.01 µM in the assay with RSV-A2-GFP virus (setting [3]) and greater than 0.1 µM in the assay on hMPV-GFP virus (setting [4]).

In the case of `Cn1nc(-c2cscn2)cc1C(=O)N1C[C@@H]2[C@H](C1)[C@H]2Oc1cc(C(C)(N)C(N)=O)cc(-c2ccc(F)cc2)n1` (single isomer, unassigned; ent-2) [Example 49B], the figures for the EC50 with RSV-A2-GFP virus (setting [5]) and in the assay with hMPV-GFP virus (setting [6]) were less than 0.01 µM and greater than 0.1 µM, respectively.

By EC50 is commonly meant the concentration at which the effect is half-maximal.

The record behind these values is patent US12565494B2, “Inhibitors of human respiratory syncytial virus and metapneumovirus” (priority 2022, dated 2026).
